From patent US11980596B2 (priority 2017, dated 2024)

What was measured:
[1] = system: patients with TRD; test: Dissociation by CADSS in SPRAVATO clinical trials (label); assay type: in vivo, human
Text: The most common psychological effects of SPRAVATO were dissociative or perceptual changes (including distortion of time, space and illusions), derealization and depersonalization (61% to 75% of SPRAVATO-treated patients developed dissociative or perceptual changes based on the Clinician Administered Dissociative Symptoms Scale) [see Adverse Reactions (6.1)]. Given its potential to induce dissociative effects, carefully assess patients with psychosis before administering SPRAVATO; treatment should be initiated only if the benefit outweighs the risk.
SPRAVATO can cause dissociative symptoms (including derealization and depersonalization) and perceptual changes (including distortion of time and space, and illusions). In clinical trials, dissociation was transient and occurred on the day of dosing. Dissociation was evaluated by adverse event reports and the Clinician-Administered Dissociative States Scale (CADSS) questionnaire. A CADSS total score of more than 4 indicates presence of dissociative symptoms, and such an increase to a score of 4 or more occurred in a higher number of patients on esketamine compared to placebo during the short-term trials (see Table 5).

[2] = Clinical pharmacokinetics of esketamine (label)
[3] = system: adult female rats; test: Second single dose neurotoxicity study (neuronal necrosis), intranasal esketamine (label); conditions: 200-gram rat
[4] = system: subjects with MDD at imminent risk for suicide; test: MADRS total score, sustained response (Study […]2001); assay type: in vivo, human
Text: Primary efficacy variable/Primary Time point: Change from baseline (Day 1, predose) to Day 1, 4-hours postdose in MADRS total score. The MADRS consists of 10 items that cover all of the core depressive symptoms, with each item scoring from 0 (item is not present or is normal) to 6 (severe or continuous presence of the symptom). A higher score represents a more severe condition.
The primary efficacy endpoint is the change in MADRS total score from baseline to Day 1: 4-hours postdose. MADRS total scores range from 0 to 60. […] As this is a phase 2a proof-of-concept study, statistical significance is based on a two-sided alpha level of 0.20. All p-values presented in this document are two-sided.
Sustained response is defined as at least 50% reduction from baseline in MADRS total score with onset on Day 1: 4 hours postdose that is maintained through the end of the double-blind phase (Day 25). Four subjects in the esketamine 84 mg group and 2 subjects in the placebo group had sustained response throughout the double-blind phase.

[5] = system: patients with TRD; test: Sedation by MOAA/s in SPRAVATO clinical trials (label); assay type: in vivo, human; conditions: after dosing
Method: In clinical trials, 49% to 61% of SPRAVATO-treated patients developed sedation based on the Modified Observer's Alertness/Sedation scale (MOAA/s) [see Adverse Reactions (6.1)], and 0.3% of SPRAVATO-treated patients experienced loss of consciousness (MOAA/s score of 0).
Sedation was evaluated by adverse event reports and using the Modified Observer's Alertness/Sedation scale (MOAA/s). In the MOAA/s scale, 5 means “responds readily to name spoken in normal tone” and 0 means “no response after painful trapezius squeeze.” Any decrease in MOAA/s from pre-dose is considered to indicate presence of sedation, and such a decrease occurred in a higher number of patients on esketamine than placebo during the short-term trials (Table 4).

[6] = system: patients with treatment-resistant depression (TRD); test: CADSS (Example 7); conditions: human, in vivo, other: intranasal
Method: Adverse events were monitored throughout the study. Other safety assessments (i.e., laboratory tests, vital signs, physical examination) were performed at pre-specified time points. Vital signs, the Clinician Administered Dissociative States Scale (CADSS; Bremner, “Measurement of dissociative states with the clinician-administered dissociative states scale (CADSS)”, J. Traumatic Stress, 1998, 11(1):125-136), and the 4-item positive symptom subscale from the Brief Psychiatric Rating Scale (BPRS; Overall, “The Brief Psychiatric Rating Scale. Psychological Reports”, 1962, 10:799-812) were assessed pre-dose, at 40 minutes, and 2 hours post-dose.

[7] = system: subjects with MDD at imminent risk for suicide; test: SIBAT clinical global judgment of suicide risk ([…]2001); assay type: in vivo, human
Text: The clinical global judgment of suicide risk (Module 8) summarizes clinician overall judgment of suicide risk as derived from information gathered from the full SIBAT tool. It operates like numerous other CGI-severity scales that have been used in other psychiatric studies. Change in the clinical global judgment of suicide risk is designed to directly identify clinical meaningful changes in suicidal ideation and to permit classification of suicide risk.
The analysis of the change in SIBAT score was based on an ANCOVA model on ranks of change in SIBAT with treatment, antidepressant therapy, and analysis center as factors, and baseline value (unranked) as a covariate. There was a significant difference (two-sided […]) between the two treatment groups when comparing the mean rank of change from baseline at Day 1: 4-hours postdose in favor of esketamine 84 mg See, Table 58. See, FIG. 39. […] This difference was not evident at the Day 25 DB endpoint. See, FIG. 40, which is based on LOCF data and analyzed using Cochran-Mantel-Haenszel test controlling for analysis center and antidepressant therapy.

[8] = human, plasma, other: nasal spray
[9] = esketamine 84 mg minus placebo, ANCOVA LOCF
[10] = esketamine 84 mg, LOCF, ITT, N = 35
[11] = esketamine 84 mg, LOCF, ITT, N = 35, negative change = improvement
[12] = esketamine 84 mg, predose Day 1, ITT, N = 35

CN[C@]1(c2ccccc2Cl)CCCCC1=O [esketamine, (S)-2-(2-chlorophenyl)-2-(methylamino)cyclohexanone]
Incidence of dissociation reported as severe in intensity ([1]; across studies): less than 4%
Dissociation symptoms typically resolved by ([1]; after dosing): ≤ 1.5 h
Time to reach maximum plasma concentration ([2]; after the last nasal spray of a treatment session): 20 to 40 min
Presence in human milk ([2]; human, in vivo): present in human milk
bioavailability ([2]; human, plasma, inhaled or intranasal): ~48%
clearance ([2]; human, plasma, iv): ~1480 mL/min
Inter-subject variability, AUC∞ [2, 8]: 18% to 45
Inter-subject variability, Cmax [2, 8]: 27% to 66
Intra-subject variability, AUC∞ [2, 8]: ~10%
Intra-subject variability, Cmax [2, 8]: approximately 15%
Dose excreted as unchanged drug in urine ([2]; nasal): Less than 1%
Accumulation in plasma ([2]; twice a week administration): No accumulation
Highest dose equivalent with no findings of neuronal necrosis [3]: 270 mg/kg
MADRS: least-square mean difference from placebo ([4]; 84 mg, Day 1, 4-hours postdose, ANCOVA): −5.3 (2.10)
MADRS total score, change to Day 1 (DB): 4 H, Diff. of LS Means (SE) [4, 9]: −5.3 (2.10)
MADRS total score, change to Day 2 (DB), Diff. of LS Means (SE) [4, 9]: −7.2 (2.85)
MADRS total score, change to End Point (DB), Diff. of LS Means (SE) [4, 9]: −4.5 (3.14)
MADRS total score, Day 1 (DB): 4 H, Median (Range) [4, 10]: 23.0 (7; 48)
MADRS total score, Day 2 (DB), Median (Range) [4, 10]: 18.0 (3; 42)
MADRS total score, End Point (DB), Median (Range) [4, 10]: 8.0 (0; 44)
MADRS total score, Change from Baseline to Day 1 (DB): 4 H, Median (Range) [4, 11]: −14.0 (−32; 1)
MADRS total score, Change from Baseline to Day 2 (DB), Median (Range) [4, 11]: −19.0 (−41; 1)
MADRS total score, Change from Baseline to End Point (DB), Median (Range) [4, 11]: −25.0 (−46; 13)
MADRS total score, Baseline (DB), Median (Range) [4, 12]: 38.0 (27; 49)
Sedative effects typically resolved by [5]: ≤ 1.5 h
Perceptual changes/dissociative symptoms (CADSS): time of peak [6]: 30 to 40 min
SIBAT Clinical Global Judgment of Suicide Risk: change vs placebo ([7]; 84 mg, Day 1: 4-hours postdose and Day 2): statistically superior
SIBAT Clinical Global Judgment of Suicide Risk, Day 1 (DB): 4H, Median (Range) ([7]; esketamine 84 mg, LOCF, ITT, N = 33): 5.0 (0; 6)
SIBAT Clinical Global Judgment of Suicide Risk, Change from Baseline to Day 1 (DB): 4H, Median (Range) ([7]; esketamine 84 mg, LOCF, ITT, N = 33, negative change = improvement): 0.0 (−6; 1)
SIBAT Clinical Global Judgment of Suicide Risk, Day 2 (DB), Median (Range) [7, 10]: 5.0 (0; 6)
SIBAT Clinical Global Judgment of Suicide Risk, Change from Baseline to Day 2 (DB), Median (Range) [7, 11]: −1.0 (−6; 1)
SIBAT Clinical Global Judgment of Suicide Risk, Baseline (DB), Median (Range) [7, 12]: 6.0 (5; 6)
